The text below walks through data of patent US20090203667A1, “PENTADIENAMIDE DERIVATIVES” (Kyowa Hakko Kirin Co., Ltd., priority 2006, published 2009).

The target in series [1] is T1, vanilloid receptor (TRPV1) (Rattus norvegicus, UniProt O35433).
T1 construct: The spinal cord was extirpated from an SPF/VAF rat; from tissue; host or cells: rat spinal cord membrane specimen (SPF/VAF rat, Charles River Laboratories Japan Inc.)
The experiment in a line: [3H]Resiniferatoxin ([3H]RTX) binding experiment using rat spinal cord. Particulars: rat spinal cord membrane specimen, 37° C., 60 minutes; read-out: IC50 of [3H]RTX specific binding. As for the experimental part:
[^3H]Resiniferatoxin ([^3H]RTX) Binding Experiment Using Rat Spinal Cord
The spinal cord was extirpated from an SPF/VAF rat (Charles River Laboratories Japan Inc.) and homogenized in an ice-cooled homogenization buffer (10 mmol/L HEPES/NaOH, 5 mmol/L KCl, 5.8 mmol/L NaCl, 2 mmol/L MgCl2, 0.75 mmol/L CaCl2, 12 mmol/L glucose, 137 mmol/L sucrose, pH 7.4). The resulting homogenate was centrifuged at 1000 g for 10 minutes at 4° C. The supernatant was centrifuged at 35000 g for 30 minutes at 4° C. The obtained precipitate was suspended in the homogenization buffer. The suspension was used as a tissue membrane specimen, and the protein concentration was determined using a protein assay staining solution (Bio-Rad Laboratories, US). The thus prepared specimen was stored at −80° C.
The known method [The Journal of Pharmacology and Experimental Therapeutics, 267: 728-733 (1993)] was modified and the modified method was performed. 400 μL of a membrane specimen solution (protein amount: about 50 μg) obtained by diluting the prepared specimen with an assay buffer (10 mmol/L HEPES/NaOH, 5 mmol/L KCl, 5.8 mmol/L NaCl, 2 mmol/L MgCl2, 0.75 mmol/L CaCl2, 12 mmol/L glucose, 137 mmol/L sucrose, 0.25 mg/mL bovine serum albumin, pH 7.4), 50 μL of a test compound solution, and 50 μL of [^3H]RTX (PerkinElmer Life Sciences Inc., US) were mixed and the mixture was incubated at 37° C. for 60 minutes. The reaction mixture was transferred on ice, and 50 μL of previously ice-cooled 2 mg/mL α1 acid glycoprotein (Sigma) was added thereto, and then, the mixture was centrifuged at 12000 g for 15 minutes at 4° C. A procedure in which 0.4 mL of the assay buffer was added to the obtained precipitate and the mixture was centrifuged at 12000 g for 15 minutes at 4° C. was performed twice. The precipitate obtained by the centrifugation was suspended in 0.5 mL of a 0.1 mol/L aqueous NaOH solution. 7 mL of Ultima Gold (Packard, US) was added to the suspension, and the radioactivity of the solution was measured using a liquid scintillation counter (LS6500: Beckman Coulter, Inc., US or TRI-CARB 2700TR: Packard, US). The [^3H]RTX binding amount in the presence of 0.1 μmol/L RTX was considered to be non-specific binding, and the specific binding was calculated by subtracting this value from the total amount of [^3H]RTX binding to the membrane specimen. Then, the replacement amount of the [^3H]RTX specific binding in the presence of the compound to the [^3H]RTX specific binding amount in the absence of the compound was calculated in percent. The IC50 value of the compound in this experiment was obtained from a logistic equation.
The logistic equation was fit to the following equation (equation 205 in the program) in the curve regression program XLfit (IDBS Inc.).
Y: Inhibition ratio X: Concentration of test compound

Series [2] concerns entrapment nerve injury rat. The experiment in a line: Neuropathic pain inhibitory activity in entrapment nerve injury rat (von Frey pain threshold). The class given is in vivo. As to conditions: orally administered, dose of 20 mg/kg or less, measured after 1 hour, von Frey filaments. The source says: Neuropathic Pain Inhibitory Activity of Compound in Entrapment Nerve Injury Rat
The method of Mosconi, Kruger et al. (Pain, vol. 64, pp. 37-57 (1996)) was modified partially and an entrapment nerve injury rat was produced.
By using a male Crl:CD(SD) rat, the sciatic nerve of the left hind limb was exfoliated under pentobarbital anesthesia, and the exfoliated region was covered with a polyethylene tube (trade name: Intramedic, size: PE-60, manufactured by Becton Dickinson and Company) with a length of 2 mm. On days 14 to 21 after the surgery, the rat was placed in a stainless-steel connected cage (750 mm (length)×210 mm (depth)×170 mm (height)) consisting of 5 cages connected in a row and having a mesh floor and was acclimated to the environment for at least 20 minutes, and then, the pain was evaluated.
The pain was evaluated using von Frey filaments (trade name: touch test sensory evaluator, Model number: model 58011, manufactured by Muromachi Kikai), and the results were calculated as a pain threshold. That is, by using a von Frey filament of different stimulation intensity, stimulation was given to the paw at the injured side of the entrapment nerve injury rat, and the stimulation intensity at which the paw was withdrawn was obtained. Then, the pain threshold (paw withdrawal threshold) (g) was calculated by the up down method of Dixon [Annual Review of Pharmacology and Toxicology, vol. 20, pp. 441-462 (1980)]. Incidentally, the pain threshold of a normal rat was from 10 to 12 g on an average.
In the evaluation of the test compound, a rat having a 50% pain threshold of less than 4 g was used, and the test compound was dissolved in a 0.5% aqueous methyl cellulose solution and orally administered at a dose of 5 mL/kg. After 1 hour, by using von Frey filaments, the pain threshold was measured.

T1 sequence (O35433 whole entry): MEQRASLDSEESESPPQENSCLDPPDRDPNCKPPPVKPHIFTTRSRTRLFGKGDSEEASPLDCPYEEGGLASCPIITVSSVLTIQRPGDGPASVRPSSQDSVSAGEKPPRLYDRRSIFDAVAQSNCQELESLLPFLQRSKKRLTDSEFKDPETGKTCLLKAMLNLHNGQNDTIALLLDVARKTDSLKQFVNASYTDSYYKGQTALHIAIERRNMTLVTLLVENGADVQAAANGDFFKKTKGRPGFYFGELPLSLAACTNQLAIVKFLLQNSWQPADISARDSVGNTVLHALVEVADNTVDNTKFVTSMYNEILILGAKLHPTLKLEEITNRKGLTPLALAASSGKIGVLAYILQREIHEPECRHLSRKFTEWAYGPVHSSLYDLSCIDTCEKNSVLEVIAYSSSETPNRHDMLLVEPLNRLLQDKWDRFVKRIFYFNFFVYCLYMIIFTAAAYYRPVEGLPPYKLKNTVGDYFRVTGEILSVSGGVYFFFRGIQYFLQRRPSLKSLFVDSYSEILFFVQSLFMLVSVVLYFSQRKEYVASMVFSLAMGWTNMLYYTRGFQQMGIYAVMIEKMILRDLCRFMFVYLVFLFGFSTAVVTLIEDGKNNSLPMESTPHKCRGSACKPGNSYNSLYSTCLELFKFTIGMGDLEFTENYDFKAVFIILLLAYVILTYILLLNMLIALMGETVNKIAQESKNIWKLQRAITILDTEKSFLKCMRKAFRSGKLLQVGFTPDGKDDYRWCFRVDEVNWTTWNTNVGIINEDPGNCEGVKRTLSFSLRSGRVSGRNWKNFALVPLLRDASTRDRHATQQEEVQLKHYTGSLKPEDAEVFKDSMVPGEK

A word on the IC50: it is the midpoint of a concentration-inhibition curve. By melting point is commonly meant the temperature of the solid-liquid transition. With `O=C(/C=C/C=C(\c1ccc(F)cc1)c1ccc(C(F)(F)F)cc1)Nc1cccc2cnccc12` [Compound 74, (2E,4Z)-5-(4-Fluorophenyl)-N-(isoquinolin-5-yl)-5-[4-(trifluoromethyl)phenyl]-2,4-pentadienamide], the melting point was 142 to 143 °C. In series [1], the IC50 is under 100 nM. Moreover, in series [2], the “pain threshold (paw withdrawal threshold)” value was “significantly increases the pain threshold”.
